Results taken from PMC8550792, “Evolution of kinase polypharmacology across HSP90 drug discovery” (Cell Chemical Biology, 2021).

What was measured:
Test in all cases: biochemical
Format in all cases: biochemical
[1] = target: T1, 382 unique human kinases (Homo sapiens, UniProt P49759); conditions: CLK1, 10 uM; for remaining activity at 10 µM: read-out: % Enzyme Activity (relative to DMSO controls)
T1 construct: purchased Reaction Biology (HotSpot contract assay)

[2] = target: T2, 382 unique human kinases (Homo sapiens, UniProt Q14164); conditions: kinase IKKe/IKBKE, compound 10 uM; for remaining activity at 10 µM: read-out: % Enzyme Activity (relative to DMSO controls)
T2 construct: purchased Reaction Biology (HotSpot contract assay)
T2 sequence (Q14164 1-716): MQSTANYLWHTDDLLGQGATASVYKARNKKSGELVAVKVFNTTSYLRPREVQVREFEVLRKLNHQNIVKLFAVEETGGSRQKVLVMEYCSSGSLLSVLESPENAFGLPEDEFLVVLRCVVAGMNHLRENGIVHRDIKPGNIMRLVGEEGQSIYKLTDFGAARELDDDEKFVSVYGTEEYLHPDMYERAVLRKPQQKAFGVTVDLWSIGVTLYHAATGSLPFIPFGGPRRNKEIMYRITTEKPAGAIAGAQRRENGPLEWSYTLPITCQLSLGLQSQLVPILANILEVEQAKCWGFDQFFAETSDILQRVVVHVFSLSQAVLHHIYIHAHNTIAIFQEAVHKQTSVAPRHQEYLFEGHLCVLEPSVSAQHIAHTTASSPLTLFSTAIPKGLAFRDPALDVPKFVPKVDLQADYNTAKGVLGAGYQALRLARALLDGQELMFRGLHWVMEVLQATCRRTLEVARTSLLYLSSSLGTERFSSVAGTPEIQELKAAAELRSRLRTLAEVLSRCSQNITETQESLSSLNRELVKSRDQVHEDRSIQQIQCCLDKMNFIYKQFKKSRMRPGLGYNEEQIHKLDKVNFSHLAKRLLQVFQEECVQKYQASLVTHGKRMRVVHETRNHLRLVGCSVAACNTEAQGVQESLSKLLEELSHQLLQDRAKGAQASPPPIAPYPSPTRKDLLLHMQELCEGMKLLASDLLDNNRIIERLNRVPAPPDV

[3] = target: T3, 382 unique human kinases (Homo sapiens, UniProt Q9UM73, G1269S); conditions: ALK (G1269S), 10 uM; for remaining activity at 10 µM: read-out: % Enzyme Activity (relative to DMSO controls)
T3 construct: purchased Reaction Biology (HotSpot contract assay)
T3 sequence (Q9UM73 19-1620 G1269S): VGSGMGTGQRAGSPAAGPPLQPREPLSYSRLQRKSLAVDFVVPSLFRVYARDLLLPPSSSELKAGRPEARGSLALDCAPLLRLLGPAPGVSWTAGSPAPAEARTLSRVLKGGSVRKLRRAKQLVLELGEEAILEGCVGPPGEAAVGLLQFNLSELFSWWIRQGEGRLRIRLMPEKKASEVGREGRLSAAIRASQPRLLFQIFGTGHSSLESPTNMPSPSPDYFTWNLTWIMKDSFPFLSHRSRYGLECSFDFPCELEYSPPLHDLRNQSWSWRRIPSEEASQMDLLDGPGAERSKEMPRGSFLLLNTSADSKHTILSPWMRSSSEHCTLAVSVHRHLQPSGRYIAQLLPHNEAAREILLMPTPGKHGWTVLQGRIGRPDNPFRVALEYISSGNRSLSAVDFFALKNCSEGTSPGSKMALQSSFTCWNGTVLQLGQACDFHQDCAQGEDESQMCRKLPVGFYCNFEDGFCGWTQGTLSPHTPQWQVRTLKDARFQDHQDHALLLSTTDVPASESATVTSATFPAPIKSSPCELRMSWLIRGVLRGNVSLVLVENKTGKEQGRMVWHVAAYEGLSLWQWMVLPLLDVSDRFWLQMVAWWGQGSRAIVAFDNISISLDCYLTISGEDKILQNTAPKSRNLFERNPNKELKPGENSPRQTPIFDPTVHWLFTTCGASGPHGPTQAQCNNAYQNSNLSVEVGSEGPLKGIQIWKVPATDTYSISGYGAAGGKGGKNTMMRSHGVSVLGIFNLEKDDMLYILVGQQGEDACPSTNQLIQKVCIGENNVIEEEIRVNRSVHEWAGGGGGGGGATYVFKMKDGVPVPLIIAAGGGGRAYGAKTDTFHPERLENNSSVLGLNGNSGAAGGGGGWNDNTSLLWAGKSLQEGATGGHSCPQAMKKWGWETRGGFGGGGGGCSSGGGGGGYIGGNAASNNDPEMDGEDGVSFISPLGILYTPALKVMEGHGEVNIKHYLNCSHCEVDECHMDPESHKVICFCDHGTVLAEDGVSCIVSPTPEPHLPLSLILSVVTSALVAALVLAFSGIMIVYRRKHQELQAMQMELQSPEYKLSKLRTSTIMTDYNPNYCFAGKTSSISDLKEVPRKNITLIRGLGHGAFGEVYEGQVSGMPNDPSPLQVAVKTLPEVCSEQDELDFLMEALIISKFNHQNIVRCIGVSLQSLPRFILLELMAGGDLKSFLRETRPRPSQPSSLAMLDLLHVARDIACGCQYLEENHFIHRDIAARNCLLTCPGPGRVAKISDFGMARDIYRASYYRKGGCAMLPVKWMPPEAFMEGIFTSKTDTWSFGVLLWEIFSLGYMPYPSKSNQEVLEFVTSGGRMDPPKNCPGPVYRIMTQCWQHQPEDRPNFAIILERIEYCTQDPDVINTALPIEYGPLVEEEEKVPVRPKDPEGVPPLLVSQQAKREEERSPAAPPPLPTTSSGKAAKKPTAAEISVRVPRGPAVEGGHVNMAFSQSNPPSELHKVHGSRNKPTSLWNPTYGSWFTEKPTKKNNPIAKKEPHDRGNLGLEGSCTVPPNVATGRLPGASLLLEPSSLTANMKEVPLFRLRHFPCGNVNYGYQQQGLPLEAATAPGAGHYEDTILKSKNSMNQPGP

[4] = target: T4, 382 unique human kinases (Homo sapiens, UniProt P08581, F1200I); conditions: kinase c-MET (F1200I), compound 10 uM; for remaining activity at 10 µM: read-out: % Enzyme Activity (relative to DMSO controls)
T4 construct: purchased Reaction Biology (HotSpot contract assay)

[5] = target: T5, 382 unique human kinases (Homo sapiens, UniProt Q8TD08); conditions: kinase ERK7/MAPK15, compound 10 uM; for remaining activity at 10 µM: read-out: % Enzyme Activity (relative to DMSO controls)
T5 construct: purchased Reaction Biology (HotSpot contract assay)
T5 sequence (Q8TD08 1-544): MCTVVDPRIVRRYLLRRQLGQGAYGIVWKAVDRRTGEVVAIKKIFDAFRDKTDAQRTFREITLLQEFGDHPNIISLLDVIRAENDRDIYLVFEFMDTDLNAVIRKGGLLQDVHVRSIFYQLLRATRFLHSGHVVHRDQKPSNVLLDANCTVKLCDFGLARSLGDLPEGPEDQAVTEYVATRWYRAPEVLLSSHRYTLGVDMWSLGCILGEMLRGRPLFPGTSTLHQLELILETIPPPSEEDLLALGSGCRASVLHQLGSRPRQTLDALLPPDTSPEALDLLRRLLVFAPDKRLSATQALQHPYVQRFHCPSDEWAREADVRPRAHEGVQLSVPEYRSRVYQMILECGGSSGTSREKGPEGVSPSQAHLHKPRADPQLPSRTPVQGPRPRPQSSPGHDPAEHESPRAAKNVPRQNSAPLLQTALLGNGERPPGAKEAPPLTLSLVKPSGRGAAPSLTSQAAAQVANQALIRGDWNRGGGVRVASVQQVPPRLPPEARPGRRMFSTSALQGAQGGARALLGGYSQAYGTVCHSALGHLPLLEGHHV

[6] = target: T6, 382 unique human kinases (Homo sapiens, UniProt P07949, V778I); conditions: RET (V778I), [ATP] 10 µM, compound 10 uM; for remaining activity at 10 µM: read-out: % Enzyme Activity (relative to DMSO controls)
T6 construct: purchased Reaction Biology (HotSpot contract assay)

[7] = target: T7, 382 unique human kinases (Homo sapiens, UniProt Q15208); conditions: STK38/NDR1, 10 uM; for remaining activity at 10 µM: read-out: % Enzyme Activity (relative to DMSO controls)
T7 construct: purchased Reaction Biology (HotSpot contract assay)
T7 sequence (Q15208 whole entry): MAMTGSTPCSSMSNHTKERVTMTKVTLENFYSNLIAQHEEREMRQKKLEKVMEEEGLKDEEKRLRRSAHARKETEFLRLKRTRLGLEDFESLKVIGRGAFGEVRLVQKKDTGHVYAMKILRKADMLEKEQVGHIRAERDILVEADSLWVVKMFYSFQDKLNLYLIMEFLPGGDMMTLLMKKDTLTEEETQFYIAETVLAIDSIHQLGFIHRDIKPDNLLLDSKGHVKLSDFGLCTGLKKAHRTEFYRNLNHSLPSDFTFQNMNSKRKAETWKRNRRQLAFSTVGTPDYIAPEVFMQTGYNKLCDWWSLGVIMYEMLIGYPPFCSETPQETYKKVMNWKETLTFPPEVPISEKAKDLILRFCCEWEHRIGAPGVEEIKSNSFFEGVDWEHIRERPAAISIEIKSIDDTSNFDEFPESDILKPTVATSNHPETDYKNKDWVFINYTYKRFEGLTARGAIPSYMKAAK

[8] = target: T8, 382 unique human kinases (Homo sapiens, UniProt Q16584); conditions: MLK3/MAP3K11, 10 uM; for remaining activity at 10 µM: read-out: % Enzyme Activity (relative to DMSO controls)
T8 construct: purchased Reaction Biology (HotSpot contract assay)
T8 sequence (Q16584 whole entry): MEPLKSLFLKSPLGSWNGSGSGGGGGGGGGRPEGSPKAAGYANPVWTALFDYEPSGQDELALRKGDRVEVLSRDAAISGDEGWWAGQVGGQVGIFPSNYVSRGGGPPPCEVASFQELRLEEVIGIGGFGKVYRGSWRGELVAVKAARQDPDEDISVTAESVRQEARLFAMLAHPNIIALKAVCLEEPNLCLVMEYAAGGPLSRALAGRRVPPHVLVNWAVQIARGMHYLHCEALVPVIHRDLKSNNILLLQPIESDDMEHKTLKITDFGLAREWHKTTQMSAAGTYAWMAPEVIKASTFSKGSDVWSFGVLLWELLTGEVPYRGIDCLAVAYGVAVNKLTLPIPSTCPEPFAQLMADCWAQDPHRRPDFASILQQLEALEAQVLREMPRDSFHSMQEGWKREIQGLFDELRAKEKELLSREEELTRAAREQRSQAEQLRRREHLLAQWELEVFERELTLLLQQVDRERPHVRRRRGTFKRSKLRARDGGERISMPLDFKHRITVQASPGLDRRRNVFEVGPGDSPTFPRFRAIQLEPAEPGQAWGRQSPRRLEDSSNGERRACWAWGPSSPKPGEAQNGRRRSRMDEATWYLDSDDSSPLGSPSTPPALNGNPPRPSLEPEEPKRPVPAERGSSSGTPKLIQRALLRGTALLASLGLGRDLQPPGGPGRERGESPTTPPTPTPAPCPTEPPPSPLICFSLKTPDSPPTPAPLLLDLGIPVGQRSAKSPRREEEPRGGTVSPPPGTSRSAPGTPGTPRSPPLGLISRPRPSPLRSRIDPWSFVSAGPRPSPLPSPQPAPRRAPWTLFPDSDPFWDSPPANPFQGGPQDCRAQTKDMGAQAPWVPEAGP

[9] = target: T9, 382 unique human kinases (Homo sapiens, UniProt P22455, N535K); conditions: FGFR4 (N535K), 10 uM; for remaining activity at 10 µM: read-out: % Enzyme Activity (relative to DMSO controls)
T9 construct: purchased Reaction Biology (HotSpot contract assay)
T9 sequence (P22455 22-802 N535K): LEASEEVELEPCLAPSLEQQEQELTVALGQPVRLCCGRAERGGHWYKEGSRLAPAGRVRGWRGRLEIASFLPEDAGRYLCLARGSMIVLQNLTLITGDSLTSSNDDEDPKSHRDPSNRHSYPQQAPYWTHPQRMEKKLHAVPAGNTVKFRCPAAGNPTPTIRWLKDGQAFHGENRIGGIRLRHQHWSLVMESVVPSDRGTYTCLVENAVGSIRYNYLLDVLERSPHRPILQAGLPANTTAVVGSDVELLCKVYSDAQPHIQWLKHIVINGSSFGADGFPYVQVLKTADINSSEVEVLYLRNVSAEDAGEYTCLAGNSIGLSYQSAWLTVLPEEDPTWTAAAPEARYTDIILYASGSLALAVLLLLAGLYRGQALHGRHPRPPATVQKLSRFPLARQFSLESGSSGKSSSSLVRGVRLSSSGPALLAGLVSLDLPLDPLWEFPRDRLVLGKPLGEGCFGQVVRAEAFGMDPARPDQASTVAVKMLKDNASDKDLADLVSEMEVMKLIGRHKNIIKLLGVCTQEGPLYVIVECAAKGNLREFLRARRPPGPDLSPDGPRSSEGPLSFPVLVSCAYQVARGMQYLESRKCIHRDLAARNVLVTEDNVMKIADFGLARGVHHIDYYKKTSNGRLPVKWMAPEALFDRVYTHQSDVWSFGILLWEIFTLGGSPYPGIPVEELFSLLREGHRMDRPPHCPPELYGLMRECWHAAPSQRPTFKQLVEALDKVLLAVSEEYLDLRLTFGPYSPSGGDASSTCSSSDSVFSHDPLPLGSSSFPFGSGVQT

[10] = target: T10, 382 unique human kinases (Homo sapiens, UniProt Q06187); conditions: BTK, [ATP] 50 µM, compound 10 uM; for remaining activity at 10 µM: read-out: % Enzyme Activity (relative to DMSO controls)
T10 construct: purchased Reaction Biology (HotSpot contract assay)
T10 sequence (Q06187 whole entry): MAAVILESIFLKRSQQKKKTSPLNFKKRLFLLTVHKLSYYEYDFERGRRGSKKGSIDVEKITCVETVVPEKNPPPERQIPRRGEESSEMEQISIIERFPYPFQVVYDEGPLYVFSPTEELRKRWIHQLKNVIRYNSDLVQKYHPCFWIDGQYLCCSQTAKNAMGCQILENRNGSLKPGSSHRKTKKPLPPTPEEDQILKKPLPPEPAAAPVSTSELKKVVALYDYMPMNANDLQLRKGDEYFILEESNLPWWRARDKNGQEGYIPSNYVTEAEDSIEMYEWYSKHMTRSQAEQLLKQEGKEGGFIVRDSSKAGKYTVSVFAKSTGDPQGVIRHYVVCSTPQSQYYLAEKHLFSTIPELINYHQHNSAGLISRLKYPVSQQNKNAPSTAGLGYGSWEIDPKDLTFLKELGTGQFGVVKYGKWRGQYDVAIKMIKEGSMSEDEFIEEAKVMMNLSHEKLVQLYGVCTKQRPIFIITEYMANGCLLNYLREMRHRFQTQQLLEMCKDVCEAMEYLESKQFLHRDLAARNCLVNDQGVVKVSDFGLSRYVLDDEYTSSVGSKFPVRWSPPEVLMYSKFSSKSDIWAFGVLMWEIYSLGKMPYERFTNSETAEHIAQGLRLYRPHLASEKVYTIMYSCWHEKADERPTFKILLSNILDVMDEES

T1 sequence (P49759 whole entry): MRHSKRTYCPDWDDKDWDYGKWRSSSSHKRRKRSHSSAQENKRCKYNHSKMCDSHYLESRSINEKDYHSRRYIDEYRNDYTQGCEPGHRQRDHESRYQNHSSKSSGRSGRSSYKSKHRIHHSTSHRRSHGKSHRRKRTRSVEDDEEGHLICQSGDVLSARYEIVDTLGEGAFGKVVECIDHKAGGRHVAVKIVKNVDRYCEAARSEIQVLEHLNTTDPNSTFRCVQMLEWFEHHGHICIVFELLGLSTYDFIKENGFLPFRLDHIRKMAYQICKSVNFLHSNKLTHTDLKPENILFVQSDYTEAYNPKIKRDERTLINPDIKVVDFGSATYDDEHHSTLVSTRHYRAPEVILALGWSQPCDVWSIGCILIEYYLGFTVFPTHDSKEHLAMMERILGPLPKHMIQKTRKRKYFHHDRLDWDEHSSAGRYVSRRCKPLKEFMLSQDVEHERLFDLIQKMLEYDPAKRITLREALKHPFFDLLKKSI

## CC(C)c1cc(-c2n[nH]c(=O)n2-c2ccc3c(ccn3C)c2)c(O)cc1O [Ganetespib (STA9090)]
[1]
  remaining activity at 10 µM: 69.1%
[2]
  remaining activity at 10 µM: 95.7%
[3]
  remaining activity at 10 µM: 74.6%
[4]
  remaining activity at 10 µM: 86.5%
[5]
  remaining activity at 10 µM: 84.8%

## CC(C)c1cc(-c2n[nH]c(=O)n2-c2ccc3c(ccn3C)c2)c(O)cc1O [Ganetespib]
[6]
  remaining activity at 10 µM: 56.4%
[7]
  remaining activity at 10 µM: 95.7%
[8]
  remaining activity at 10 µM: 91%
[9]
  remaining activity at 10 µM: 101%
[10]
  remaining activity at 10 µM: 56%

## CCNC(=O)c1noc(-c2cc(C(C)C)c(O)cc2O)c1-c1ccc(CN2CCOCC2)cc1 [Luminespib (AUY-922)]
[1]
  % Enzyme Activity (relative to DMSO controls): 95.73%
  remaining activity at 10 µM: 95.8%
[2]
  % Enzyme Activity (relative to DMSO controls): 104.37%
  remaining activity at 10 µM: 109%
[3]
  % Enzyme Activity (relative to DMSO controls): 101.62%
  remaining activity at 10 µM: 104%
[4]
  % Enzyme Activity (relative to DMSO controls): 100.14%
  remaining activity at 10 µM: 100%
[5]
  % Enzyme Activity (relative to DMSO controls): 97.45%
  remaining activity at 10 µM: 102%

## CCNC(=O)c1noc(-c2cc(C(C)C)c(O)cc2O)c1-c1ccc(CN2CCOCC2)cc1 [Luminespib]
[6]
  % Enzyme Activity (relative to DMSO controls): 105.36%
  remaining activity at 10 µM: 111%
[7]
  % Enzyme Activity (relative to DMSO controls): 98.10%
  remaining activity at 10 µM: 99%
[8]
  % Enzyme Activity (relative to DMSO controls): 103.89%
  remaining activity at 10 µM: 104%
[9]
  % Enzyme Activity (relative to DMSO controls): 97.33%
  remaining activity at 10 µM: 101%
[10]
  % Enzyme Activity (relative to DMSO controls): 74.40%
  remaining activity at 10 µM: 74.9%
